Assays:
[1] = system: U2OS line transduced with the Bmal 1-Luc reporter; assay: Period of the circadian rhythm in U2OS cells with Bmal1-Luc reporter (luminescence, cosinor analysis); format: cell-based, Human; conditions: for Period length ± standard error of the mean (expressed relative to control) at the indicated concentration: U2OS, DMSO control = 1.00
Method: Human osteosarcoma U2OS cells were grown in standard DMEM medium with 10% fetal bovine serum. U2OS cells were transduced with lentiviral particles containing a Bmall-Luc fusion reporter and selected under Blasticidin. The cell line was clonally expanded and a single monoclonal cell line was used for further experiments. Cells were cultured in a 384-well plate in growth medium to 90+% confluence. Test compound or vehicle (DMSO) was applied to recording medium with 100 U/ml penicillin, 100 ug/ml streptomycin, 1x GlutaMAX, 10% fetal bovine serum, and 0.1 mM Luciferin-EF. Luminescence was recorded every hour for the next 144 hours. Circadian rhythm analysis was performed using cosinor analysis.
The length of the period was expressed relative to the period of cells affected only by DMSO vehicle (their period is therefore 1.00). […] The overall effect on circadian oscillations unequivocally proves that the compounds of formula I can be also used to temporally modulate the concentration and activity of not only BMAL1, but also other components of the oscillator including the critical components PER2, CRY and CLOCK in time, as these are an essential part of the mechanism generating the rhythmic expression of the luminescent reporter used. The concentration and level of other proteins, whose rhythmic expression is controlled by an oscillator in the brain and peripheral tissues (so-called clock-controlled genes), are also necessarily affected. The influence of the compounds of formula I on the activity of oscillator components and subordinate genes also means influencing the physiological processes of the cell controlled by these genes and proteins. N^6-furfuryladenine was used as a reference compound. […] The ability to shift the phase of the circadian cycle can be seen in FIG. 2.

[2] = system: NIH3T3 line transfected with the Per2-Luc reporter; assay: Period of the circadian rhythm in NIH3T3 fibroblasts with Per2-Luc reporter (luminescence, cosinor analysis); format: cell-based, mouse; conditions: for Period length ± standard error of the mean (expressed relative to the control) at the indicated concentration: 50 μM, NIH3T3, DMSO control = 1.00
Method: NIH3T3 mouse embryonic fibroblasts were grown in standard DMEM with 10% fetal bovine serum. NIH3T3 cells were transfected with 1 μg of Per2-Luc reporter using GeneJuice and selected under hygromycin. The cell line was clonally expanded and a single monoclonal cell line was used for further experiments. Cells were cultured in a 96-well plate in growth medium to 90+% confluence. Test compound or vehicle (DMSO) was applied to recording medium with 100 U/ml penicillin, 100 μg/ml streptomycin, 1x GlutaMAX, 10% fetal calf serum and 0.1 mM Luciferin-EF (Promega Madison, WI, USA). Luminescence was recorded every hour for the next 144 hours. Circadian rhythm analysis was performed using cosinor analysis. Period length was expressed relative to the period of cells affected only by DMSO vehicle (their period length is therefore 1.00).

[3] = system: explanted choroid plexus (ChP) of 4th brain ventricle; assay: PER2::Luc rhythm in explanted choroid plexus (luminescence microscopy); format: cell-based, mouse; conditions: 200 uM, choroid plexus explant
Method: FIG. 6: Compound 4 affects the circadian clock in the explanted choroid plexus (CHP). (A) Individual PER2::Luc traces in analysed single-cell-sized regions of interest (ROIs) of explanted choroid plexus (CP) cultivated over 5 days ex vivo in the presence of DMSO (left) or compound 4 (right). Cosine curve below the traces indicates average oscillation across the whole explant; see dramatic increase of period in the presence of 200 uM compound 4. […] (Example 15)
Male mPer2Luc were kept and sacrificed under the same conditions as above. Their brains were removed, choroid plexus was dissected from the 4th ventricle in ice-cold HBSS medium and placed on Millicell Culture Inserts inside 6-well plate with test compound or DMSO vehicle in 1 ml air-buffered recording medium supplemented with 100 U/ml penicillin, 100 ug/ml streptomycin (Sigma-Aldrich, St. Luis, MO, USA), 1x GlutaMAX (ThermoFisher, Waltham, MA, USA), 1x B27 (ThermoFisher) and 0.1 mM Luciferin-EF (Promega Madison, WI, USA). The were placed inside Luminoview LV200 Miscroscope (Olympus, USA) with liquid-cooled EM-CCD camera (Hamamatsu) and luminescence was recorded by 10 min exposure every 1h.

[4] = system: explanted suprachiasmatic nuclei (SCN) of the hypothalamus; assay: PER2::Luc rhythm in organotypic explants of suprachiasmatic nucleus (LumiCycle); format: cell-based, mouse; conditions: ratio of period 72 h after and 72 h before application
Method: FIG. 5. Compounds of formula I modulate the parameters of the circadian clock in the suprachiasmatic nucleus, the central circadian oscillator. It increases the period (left; measured as the ratio of period during 72 h after and 72 h before application of a compound) and induces phase shift (right; quantified by fitting a cosine curve before the application of a compound, extrapolating it beyond the time of application and subtracting the actual and extrapolated phases of the first full circadian cycle corrected by endogenous period of the explant, while designating phase advance as positive and phase delay as negative number in hours). (Example 14)
Male and female mPer2Luc mice (strain B6.129S6-Per2tm1Jt/J, JAX, USA) (Yoo et al., 2004; doi: 10.1073/pnas.0308709101) were maintained in a light/dark cycle with 12 hours of light and 12 hours of darkness (LD12: 12), killed between 12:00 and 15:00, i.e. 6-9 hours after turning on the lights, by rapid cervical dislocation under isoflurane anesthesia, their brains were removed and 250 μm thick SCN slices in ice-cold HBSS medium were prepared using a vibratome (Leica, Wetzlar, Germany). Two explants containing SCN from each brain were prepared. […]

## c1coc(CNc2ncnc3c2ncn3C2CCCCO2)c1 (centres unmarked) [Compound 4, N-(furan-2-ylmethyl)-9-(tetrahydro-2H-pyran-2-yl)-9H-purin-6-amine]
[1]; 20 μM
  Period length ± standard error of the mean (expressed relative to control) at the indicated concentration: 20 μM: 1.08 ± 0
[2]
  Period length ± standard error of the mean (expressed relative to the control) at the indicated concentration: 50 μM: 1.23 ± 0.03
[3]; 5 days ex vivo, vs DMSO
  Period of PER2::Luc (in words): significantly (t-test, P<0.0001) increased
[3]; polar histogram of ROIs vs DMSO
  Phase of PER2::Luc (in words): dramatically affected
[4]
  Circadian rhythm period (in words): increases the circadian rhythm period

## COCn1cnc2c(NCc3ccco3)ncnc21 [N-(furan-2-ylmethyl)-9-(methoxymethyl)-9H-purin-6-amine, reference compound]
[1]; 50 μM
  Period length ± standard error of the mean (expressed relative to control) at the indicated concentration: 50 μM: 1.01 ± 0.01
[2]
  Period length ± standard error of the mean (expressed relative to the control) at the indicated concentration: 50 μM: 0.96 ± 0.02

## c1coc(CNc2ncnc3nc[nH]c23)c1 [N^6-furfuryladenine, reference compound]
[1]; 20 μM
  Period length ± standard error of the mean (expressed relative to control) at the indicated concentration: 20 μM: 1.02 ± 0.01
[1]; U2OS Bmal1-Luc
  Effect on the period of the circadian rhythm (in words): minimal effect
[2]
  Period length ± standard error of the mean (expressed relative to the control) at the indicated concentration: 50 μM: 1.06 ± 0.02
[2]; NIH3T3 Per2-Luc
  Effect on the period of the circadian rhythm (in words): much smaller effect
